Test results reported in paper PMC3199867, “Targeting surface nucleolin with multivalent HB-19 and related Nucant pseudopeptides results in distinct inhibitory mechanisms depending on the malignant tumor cell type” (BMC Cancer, 2011).

How the values were obtained:
TIII = assay: Cell death (trypan blue uptake); format: cell-based, murine; conditions: subconfluent, N6 or N7 20 μM, mean of at least 2 independent experiments
Experimental: (§1) Human breast (MDA-MB-231, MDA-MB-435 [37]), prostate (LNCaP, from American Type Culture Collection, ATCC, Rockville, MD), and cervical (HeLa) epithelial cancer cells were grown in DMEM-glutamax medium (Gibco Invitrogen, Cergy-Pontoise, France) containing GlutaMAX™, 4.5 g/l glucose and supplemented with 10% heat-inactivated (56°C for 30 min) fetal bovine serum (FBS; Hyclone, Thermo Fisher Scientific, Inc). Human SW480 cells are derived from a grade 3-4 colon carcinoma, while the highly metastatic counterpart SW620 is established from the lymph node of a person. Both SW480 and SW620 cells (obtained from Francis Raul, IRCAD) are highly tumorigenic in nude mice. They were cultured in D-MEM, 10% FCS. The murine melanoma TIII cell line was obtained from Armelle Prévost-Blondel. Murine T29 lymphoma cells, obtained from Philippe Kastner (CNRS, Strasbourg), have been established from Ik^L/L tumors from mice carrying a hypomorphic mutation (Ik^L/L) in the Ikaros gene encoding a transcription factor that regulates lymphocyte differentiation, and acts also as a tumor suppressor in T lymphocytes. The T29 cells were cultured in RPMI medium containing 25 mM Hepes pH 7.6, 1 mM sodium pyruvate, and 10% FCS. Human leukemia cell lines, Jurkat (acute T cell leukemia), HuT 78 (cutaneous T lymphocyte), RAJI (Burkitt lymphoma), and HL60 (promyelocytic leukemia) were cultured in RPMI-1640 medium (Gibco) containing GlutaMAX™, and supplemented with 10% heat-inactivated FBS as described before. The wild-type Chinese hamster ovary cell line (CHO K1) was purchased from American Type Culture Collection (ATCC; Rockville, MD). The CHO LRP1-null cell line (CHO-13-5-1) was kindly provided by D. Strickland [47]. They were cultured in Ham's F12K medium. All cells were cultured with 10% (v/v) heat inactivated (56°C, 30 min) fetal bovine serum (FBS) (Roche Molecular Biochemicals, Indianapolis, IN) and 50 international units/mL penicillin-streptomycin (Invitrogen). Cell death was monitored conveniently by uptake of the trypan blue dye due to plasma membrane permeability of dying and/or dead cells.

T29 = assay: Cell death (trypan blue uptake); format: cell-based, murine; conditions: for % Cell death After 24 hours: T29, freshly passaged, N6 or N7 20 μM, mean of at least 2 independent experiments; for IC50: T29 cells, 0-20 μM, read-out: Cell death: IC50 24 hours post-passage
Experimental: as §1

SW480 = assay: Cell growth / proliferation (cell number); format: cell-based, human; conditions: for Number of cells / % inhibition: counted seven days after seeding; for Number of cells: control 1,500,000; for % Growth inhibition After 3 days: SW480, N6 or N7 20 μM, viable cell number vs untreated control, mean of at least 2 independent experiments
Experimental: as §1

SW620 = assay: Cell growth / proliferation (cell number); format: cell-based, human; conditions: for Number of cells / % inhibition: counted seven days after seeding; for Number of cells: control 1,800,000; for % Growth inhibition After 3 days: SW620, N6 or N7 20 μM, viable cell number vs untreated control, mean of at least 2 independent experiments
Experimental: as §1

HuT 78 = assay: Cell death (trypan blue uptake); format: cell-based, human; conditions: HuT 78, freshly passaged; N6 or N7 20 μM; trypan blue uptake; mean of at least 2 independent experiments
Experimental: as §1, with “cells. […]” for “cells.”

Substance | % Cell death After 24 hours (TIII) [%] | % Cell death After 24 hours (T29) [%] | IC50 (T29) [µM] | Number of cells (SW480; SW480, 10 μM added once 5 hours after seeding (20,000 cells/ml, 2 ml)) | % inhibition (SW480; SW480, 10 μM added once 5 hours after seeding) [%] | Number of cells (SW480; SW480, 20 μM added once 5 hours after seeding (20,000 cells/ml, 2 ml)) | % inhibition (SW480; SW480, 20 μM added once 5 hours after seeding) [%] | % Growth inhibition After 3 days (SW480) [%] | Number of cells (SW620; SW620, 10 μM added once 5 hours after seeding (20,000 cells/ml, 2 ml)) | % inhibition (SW620; SW620, 10 μM added once 5 hours after seeding) [%] | Number of cells (SW620; SW620, 20 μM added once 5 hours after seeding (20,000 cells/ml, 2 ml)) | % inhibition (SW620; SW620, 20 μM added once 5 hours after seeding) [%] | % Growth inhibition After 3 days (SW620) [%] | % Cell death After 24 hours (HuT 78) [%]
Ac-KAKPGKAKPGKAKPG-NH2 [Nucant N7, Presents hexavalently the pseudo-tripeptide Lysψ(CH2N)-Pro-Arg coupled to a similar template as in HB-19] | < 5 | 45 | 20 | 1,200,000 | 20 | 900,000 | 40 | 25 | 1,000,000 | 44 | 700,000 | 61 | 45 | 44
Ac-Lys-Aib-Gly-Lys-Aib-Gly-Lys-Aib-Gly-Lys-Aib-Gly-Lys-Aib-Gly-Lys-Aib-Gly-CONH2 [Nucant N6, Presents hexavalently the pseudo-tripeptide Lysψ(CH2N)-Pro-Arg coupled to the polypeptide template containing Aib] | < 5 | 45 | 20 |  |  |  |  | 25 |  |  |  |  | 45 | 44
